Measurements as given in patent US6337333B1, “Method of treating autoimmune disease with fludarabine-5′-monophosphate” (priority 1992, dated 2002).

What was measured:
[1] = system: Type II collagen-induced arthritis; settings: cited from earlier work
[2] = system: T lymphocytes; assay: T lymphocyte proliferative response to mitogen after 18 hr drug pretreatment (3H-thymidine); assay type: cell-based, human; settings: 18 hr pretreatment, FIG. 1A
Protocol: (§1) In FIG. 1, freshly isolated PBMC were enriched for T and B lymphocytes using Nylon Wool (see Materials and Methods, Example A). The enriched lymphocyte subpopulations were then incubated for 18 hrs at 37° C. with various concentrations of drug. At the end of the pretreatment period, the cell samples were washed, adjusted to 2×10^5 viable cells/ml, and cultured at 1×10^4/well in flat (B cells) or round (T cells) bottomed 96 well microtiter plates in […]. The T cells were incubated for 3 days with PHA-P ([…]) or Con A (5 μg/ml) and the B cells were cultured for 6 days with either PWM (2 μg/ml) or SAC ({fraction (1/60,000)}). 1 μCi of ^3H-thymidine was added per well during the last 18 hr of culture. The wells were then harvested onto glass fiber filters, and counted in 7 ml of Cytoscint (ICN) on the LKB 1219 Rackbeta scintillation counter. The results are expressed as the mean cpm of triplicate wells.
(§2) Peripheral blood mononuclear cells obtained from normal donors as packed leukocyte preparations were enriched for T and B lymphocytes and pretreated with drug for 18 hrs prior to mitogen stimulation.
(§3) Peripheral blood mononuclear cells enriched for either T or B lymphocytes were incubated for 18 hrs in complete S-10 medium at 37° C. in 12×75 mm culture tubes at 5×10^5 cells/ml. The cells were then washed in S-10 and cultured in triplicate for either 3 (T lymphocytes) or 6 (B lymphocytes) days at 2.5×10^4/well in round bottom 96-well microtiter plates in S-10 medium at 37° C. and a 5% CO2 humidified atmosphere. The wells were pulsed with 1 μCi 3H-thymidine for the last 18 hr of culture, harvested onto glass fiber filters, and counted with 7 ml Cytoscint with a LKB Rackbeta scintillation counter. The results are reported as “percent Suppression”:
(§4) % Suppression={1−(mean cpm exp./mean cpm stim control)}×100

[3] = system: B lymphocytes; assay: B lymphocyte proliferative response to mitogen after 18 hr drug pretreatment (3H-thymidine); assay type: cell-based, human; settings: 18 hr pretreatment, FIG. 1B
Protocol: as §1, §2, §3, §4

[4] = system: IgM-RF and IgM production; settings: therapeutic concentrations of drug; cited from earlier work

## CC(C)(S)[C@@H](N)C(=O)O [D-penicillamine]
[1]
  effect on disease: early onset of the disease

## Nc1nc(F)nc2c1ncn2[C@@H]1O[C@H](CO)[C@@H](O)[C@@H]1O [F]
[2]
  suppression of T lymphocyte's ability to respond to mitogen: suppress
[3]
  suppression of B lymphocyte's ability to respond to mitogen: suppress

## O=C([O-])c1ccccc1Nc1cc(Cl)ccc1C(=O)[O-].[Na+].[Na+] [lobenzarit, disodium 4-chloro-2,2′-iminodibenzoate]
[4]
  production of IgM: suppressed
  production of IgM-RF: suppressed
